pIC50: −log10 of the molar value. Read-outs that look alike come from different tables or passages of the source.
Legend:
Kir6.2*-GFP + SUR-K205A = molecular target: T1, Kir6.2*-GFP + SUR-K205A (Homo sapiens, UniProt Q14654); assay: Bayesian MWC-type model fits to combined patch-clamp fluorometry data; format: biochemical; conditions: for Kd: read-out: KA (intrinsic binding affinity to the closed state) (converted)
T1 construct: ANAP labelling is specific and only full-length Kir6.2 is expressed at the cell membrane; expressed in transfected cells; host or cells: HEK-293T
T1 sequence (Q14654 whole entry, stated change not applied): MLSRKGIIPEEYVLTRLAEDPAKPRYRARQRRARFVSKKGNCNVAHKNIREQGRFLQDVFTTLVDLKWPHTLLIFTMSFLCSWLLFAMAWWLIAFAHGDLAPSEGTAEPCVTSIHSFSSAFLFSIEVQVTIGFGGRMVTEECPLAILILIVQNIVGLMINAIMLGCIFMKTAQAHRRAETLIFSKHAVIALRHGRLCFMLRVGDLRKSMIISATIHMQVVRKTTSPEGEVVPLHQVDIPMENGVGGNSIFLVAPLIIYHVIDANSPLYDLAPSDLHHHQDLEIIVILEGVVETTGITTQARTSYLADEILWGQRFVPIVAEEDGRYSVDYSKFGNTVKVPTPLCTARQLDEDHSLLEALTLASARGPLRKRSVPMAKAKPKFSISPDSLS
T1 sequence (Q09428 whole entry K205A partner): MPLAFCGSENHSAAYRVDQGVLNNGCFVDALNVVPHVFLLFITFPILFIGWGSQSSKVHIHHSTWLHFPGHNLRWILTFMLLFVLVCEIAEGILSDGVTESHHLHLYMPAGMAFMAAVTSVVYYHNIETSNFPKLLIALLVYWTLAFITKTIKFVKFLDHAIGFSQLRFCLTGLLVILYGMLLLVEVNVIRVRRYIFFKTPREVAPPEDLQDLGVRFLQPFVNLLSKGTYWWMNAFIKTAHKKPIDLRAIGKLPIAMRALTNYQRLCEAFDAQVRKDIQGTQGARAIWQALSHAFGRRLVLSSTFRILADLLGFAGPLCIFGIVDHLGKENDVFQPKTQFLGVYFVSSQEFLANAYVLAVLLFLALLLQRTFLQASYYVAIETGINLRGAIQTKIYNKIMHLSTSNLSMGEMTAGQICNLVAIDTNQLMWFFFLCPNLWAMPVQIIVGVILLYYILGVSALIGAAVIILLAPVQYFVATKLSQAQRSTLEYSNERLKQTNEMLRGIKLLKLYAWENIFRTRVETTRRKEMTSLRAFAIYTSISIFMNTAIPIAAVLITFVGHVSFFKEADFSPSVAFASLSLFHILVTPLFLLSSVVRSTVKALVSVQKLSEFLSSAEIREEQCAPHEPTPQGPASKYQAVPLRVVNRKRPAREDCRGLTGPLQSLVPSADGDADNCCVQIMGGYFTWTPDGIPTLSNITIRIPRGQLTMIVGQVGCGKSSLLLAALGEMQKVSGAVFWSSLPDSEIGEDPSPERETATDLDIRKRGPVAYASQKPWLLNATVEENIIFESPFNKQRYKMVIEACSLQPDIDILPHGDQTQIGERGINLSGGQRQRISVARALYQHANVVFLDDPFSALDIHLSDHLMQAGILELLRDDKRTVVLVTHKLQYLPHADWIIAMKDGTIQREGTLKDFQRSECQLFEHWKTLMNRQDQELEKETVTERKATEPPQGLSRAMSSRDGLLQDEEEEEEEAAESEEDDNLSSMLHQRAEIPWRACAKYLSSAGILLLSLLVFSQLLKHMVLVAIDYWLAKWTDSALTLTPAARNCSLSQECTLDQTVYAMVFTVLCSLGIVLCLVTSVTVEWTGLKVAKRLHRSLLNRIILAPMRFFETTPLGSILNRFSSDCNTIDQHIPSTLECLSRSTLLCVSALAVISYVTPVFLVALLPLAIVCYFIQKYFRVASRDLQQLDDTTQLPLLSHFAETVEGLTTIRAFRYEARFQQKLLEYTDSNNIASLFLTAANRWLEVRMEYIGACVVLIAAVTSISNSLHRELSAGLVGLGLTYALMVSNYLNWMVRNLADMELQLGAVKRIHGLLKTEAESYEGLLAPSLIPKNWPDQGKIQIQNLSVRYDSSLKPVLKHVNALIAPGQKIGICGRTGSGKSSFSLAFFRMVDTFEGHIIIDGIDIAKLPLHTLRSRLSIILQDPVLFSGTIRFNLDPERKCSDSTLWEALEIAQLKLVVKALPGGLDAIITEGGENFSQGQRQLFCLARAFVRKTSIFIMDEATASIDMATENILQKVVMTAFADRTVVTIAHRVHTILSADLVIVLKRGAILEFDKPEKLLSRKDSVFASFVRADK
Excerpt: (§1) Our simultaneous binding and current measurements were well fit with a Monod-Wyman-Changeux (MWC)-type model (Figure 2D,E; [Monod et al., 1965]) which has been previously proposed to explain KATP channel inhibition ([Enkvetchakul and Nichols, 2003]; [Craig et al., 2008]; [Vedovato et al., 2015]). In our MWC-type model, each ligand binding event ( KA ) is independent and each bound ligand favours the closed state by the same factor ( D ). Simultaneous measurement of binding (fluorescence) and gating (current) allowed us to obtain well constrained fits to our model. To obtain free parameter ( L , KA , D ) estimates and verify that each parameter was well and uniquely determined, we employed a Bayesian Markov chain Monte Carlo (MCMC) method previously employed by [Hines et al. (2014)]. Using this approach, we constructed posterior probability distributions for the free parameters of our MWC-type model (Figure 2F, Table 3). […] Our estimate of L was quite low and broadly distributed. We repeated our fits with L fixed to a value consistent with previous single channel measurements (0.8, Popen=0.45; [John et al., 1998]; [Enkvetchakul et al., 2000]; [Ribalet et al., 2006]). This had only a very small effect on our estimates of D and KA (Figure 2—figure supplement 1). The broad distribution of L in our fit may represent current rundown which occurs during our patch-clamp recordings and is expected to affect the open-closed equilibrium.
(§2) In addition to the full MWC-type model we considered alternate models (Figure 2—figure supplement 2). These included a model in which only the first binding event influences the open-closed equilibrium of the channel (single-binding model; Figure 2—figure supplement 2B, Table 3), and an MWC-style model with an additional parameter C to allow for direct negative cooperativity between binding sites (negative cooperativity model; Figure 2—figure supplement 2C, Table 3). The single-binding model yielded very similar parameter estimates to our full MWC-type model (Figure 2—figure supplement 2D, Table 3). This is a consequence of D being so low that even in the MWC-type model most channels are closed when only a single nucleotide is bound. The cooperative model improved our fits, but not enough to justify the inclusion of an additional free parameter (see Discussion).
(§3) The MWC-type models considered (Figure 2 and Figure 2—figure supplement 2) were formulated as follows:(3) F/Fmax=KA[TNPATP](1+KA[TNPATP])^3+LDKA[TNPATP](1+DKA[TNPATP])^3/(1+KA[TNPATP])^4+L(1+DKA[TNPATP])^4 (4) open channels/total channels=L(1+DKA[TNPATP])^4/(1+KA[TNPATP])^4+L(1+DKA[TNPATP])^4
(§4) The first was similar to the MWC-type model, except that the channels close after one molecule of TNP-ATP binding with subsequent binding events having no effect.(7) F/Fmax=LDKA[TNPATP](1+3KA[TNPATP]+3KA2[TNPATP]^2+KA3[TNPATP]^3)+KA[TNPATP](1+KA[TNPATP])^3/L(1+4DKA[TNPATP]+6DKA2[TNPATP]^2+4DKA3[TNPATP]^3+DKA4[TNPATP]^4)+(1+KA[TNPATP])^4 (8) I/Imax=L(1+4DKA[TNPATP]+6DKA2[TNPATP]^2+4DKA3[TNPATP]^3+DKA4[TNPATP]^4)/L(1+4DKA[TNPATP]+6DKA2[TNPATP]^2+4DKA3[TNPATP]^3+DKA4[TNPATP]^4)+(1+KA[TNPATP])^4⋅1+L/L
(§5) The second alternate model was the same as the full MWC model, but with an additional term C describing binding cooperativity between Kir6.2 subunits.(9) F/Fmax=LDKA[TNPATP](1+3CDKA[TNPATP]+3C^2D^2KA2[TNPATP]^2+C^3D^3KA3[TNPATP]^3)+KA[TNPATP](1+3CKA[TNPATP])+3C^2KA2[TNPATP]^2+C^3KA3[TNPATP]^3)/L(1+4DKA[TNPATP]+6CD^2KA2[TNPATP]^2+4C^2D^3KA3[TNPATP]^3+C^3D^4KA4[TNPATP]^4)+1+4KA[TNPATP]+6CKA2[TNPATP]^2+4C^2KA3[TNPATP]^3+C^3KA4[TNPATP]^4 (10) I/Imax=L(1+4DKA[TNPATP]+6CD^2KA2[TNPATP]^2+4C^2D^3KA3[TNPATP]^3+C^3D^4KA4[TNPATP]^4)/L(1+4DKA[TNPATP]+6CD^2KA2[TNPATP]^2+4C^2D^3KA3[TNPATP]^3+C^3D^4KA4[TNPATP]^4)+1+4KA[TNPATP]+6C^2KA2[TNPATP]^2+4C^2KA3[TNPATP]^3+C^3KA4[TNPATP]^4⋅1+L/L […]

Kir6.2*-GFP + SUR-K205E = molecular target: T2, Kir6.2*-GFP + SUR-K205E (Homo sapiens, UniProt Q14654); assay: as above; format: biochemical; conditions: for Kd: read-out: KA (intrinsic binding affinity to the closed state) (converted)
T2 construct: ANAP labelling is specific and only full-length Kir6.2 is expressed at the cell membrane; expressed in transfected cells; host or cells: HEK-293T
T2 sequence (Q14654 whole entry, stated change not applied): as the sequence (Q14654 whole entry, stated change not applied) above
T2 sequence (Q09428 whole entry K205E partner): as the sequence (Q09428 whole entry K205A partner) above, with A205E counted along it
Excerpt: as §1, §2, §3, §4, §5

Kir6.2*,C166S-GFP + SUR1 = Kir6.2*,C166S-GFP + SUR1 (Homo sapiens, UniProt Q14654, C166S); assay: Current inhibition in excised inside-out patches (patch-clamp fluorometry)
Kir6.2*,C166S-GFP + SUR1, sequence (Q14654 whole entry C166S): as the sequence (Q14654 whole entry, stated change not applied) above, with C166S counted along it
Kir6.2*,C166S-GFP + SUR1, sequence (Q09428 whole entry partner): as the sequence (Q09428 whole entry K205A partner) above, with A205K counted along it

[1] = Full MWC model, median estimate
[2] = Single-site (single-binding) model

Nc1ncnc2c1ncn2[C@@H]1O[C@H](COP(=O)(O)OP(=O)(O)OP(=O)(O)O)[C@H]2OC3(O[C@H]21)C([N+](=O)[O-])=CC(=[N+]([O-])[O-])C=C3[N+](=O)[O-] (stereo partly drawn) [TNP-ATP, trinitrophenyl-ATP]
D (factor by which nucleotide binding favours channel closure) (Kir6.2*-GFP + SUR-K205A; [1]): 0.55
L (unliganded open-closed equilibrium constant) (Kir6.2*-GFP + SUR-K205A; [1]): −0.37 log10
Kd (Kir6.2*-GFP + SUR-K205A; [1]): 174 µM
C (binding cooperativity between Kir6.2 subunits) (Kir6.2*-GFP + SUR-K205A; Negative cooperativity model): 0.35
D (factor by which nucleotide binding favours channel closure) (Kir6.2*-GFP + SUR-K205A; Negative cooperativity model): 0.52
L (unliganded open-closed equilibrium constant) (Kir6.2*-GFP + SUR-K205A; Negative cooperativity model): −0.16 log10
Kd (Kir6.2*-GFP + SUR-K205A; Negative cooperativity model): 79.4 µM
D (factor by which nucleotide binding favours channel closure) (Kir6.2*-GFP + SUR-K205A; [2]): 0.18
L (unliganded open-closed equilibrium constant) (Kir6.2*-GFP + SUR-K205A; [2]): −0.25 log10
Kd (Kir6.2*-GFP + SUR-K205A; [2]): 240 µM
D (factor by which nucleotide binding favours channel closure) (Kir6.2*-GFP + SUR-K205E; [1]): 0.62
L (unliganded open-closed equilibrium constant) (Kir6.2*-GFP + SUR-K205E; [1]): −0.18 log10
Kd (Kir6.2*-GFP + SUR-K205E; [1]): 398 µM
C (binding cooperativity between Kir6.2 subunits) (Kir6.2*-GFP + SUR-K205E; Negative cooperativity model): 0.45
D (factor by which nucleotide binding favours channel closure) (Kir6.2*-GFP + SUR-K205E; Negative cooperativity model): 0.58
Kd (Kir6.2*-GFP + SUR-K205E; Negative cooperativity model): 195 µM
D (factor by which nucleotide binding favours channel closure) (Kir6.2*-GFP + SUR-K205E; [2]): 0.30
L (unliganded open-closed equilibrium constant) (Kir6.2*-GFP + SUR-K205E; [2]): −0.19 log10
Kd (Kir6.2*-GFP + SUR-K205E; [2]): 490 µM
pIC50 (Kir6.2*,C166S-GFP + SUR1): 3.11
h (Hill coefficient) current inhibition (Kir6.2*,C166S-GFP + SUR1; excised inside-out patches, Mg2+-free, Hill fit): 1.35
